We go through one compound from patent US20120142771A1, “BIPHENYLACETAMIDE DERIVATIVE” (Dainippon Sumitomo Pharma Co., Ltd., priority 2008, published 2012).

For orientation: ED50 means the dose that gives a 50% effect, or the effect in half of the subjects.

One test deals with amygdala-kindling model. Put plainly: Amygdala-kindling model in rats. The test is classed as in vivo. The source says: Test 3: Test with Amygdala-Kindling Model in Rats
Test 3 evaluates the anticonvulsant action of medicaments in rats, besides mice in Tests 1 and 2. Animal model (kindling model) used herein is a very similar model to clinical findings of focal onset seizures (i.e. simple partial seizure, complex partial seizure, and secondarily generalized tonic-clonic seizure), which is known to provide excellent clinical prediction. A chronic electrode was implanted in the cortex (frontal and posterior regions) and the amygdala of Slc: Wistar male rats (body weight 250-300 g). One week after the above operation, electrical stimulation (50 Hz, 400 μA, 1 second) into the amygdala was conducted once a day for about two weeks. The stimulation condition was determined according to the method of Loscher et al. [Epilepsy Res., 40: 63-77 (2000)]. The stimulation was continued until the seizure stage 5 in the seizure severity stages according to the method of Racine et al. [Motor seizure. Electroenceph. Clin. Neurophysiol., 32:281-294 (1972)] was observed 10 consecutive times. Kindling model was thus completed. Then, test compounds (100 mg/kg) were orally administered to this model. After an hour of administration, the rats were evaluated based on three parameters, i.e., a threshold stimulus current to induce seizure (i.e. seizure threshold), the duration of afterdischrage observed on an electroencephalogram, and seizure severity (stage scores 1-5). The results of the seizure threshold and the afterdischarge duration were shown as average percentage of change from the pretreatment value obtained before the administration of each test compound. To the control rats, 0.5% tragacanth solution was administered. Minus means decreased or shortened.

The next test deals with Slc: C57BL/6J male mice. Put plainly: Evaluation of antimanic effect (methamphetamine and chlordiazepoxide induced hyperactivity, locomotor distance). The test is classed as in vivo. As to conditions: methamphetamine 4 mg/kg and chlordiazepoxide 10 mg/kg i.p. From the text: Meanwhile, there are no reports about animal models which provide a good clinical prediction to evaluate the improving efficacy for bipolar disorder. However, bipolar disorder comprises “manic state” and “depressive state”, and some animals are reported to be useful as a model to evaluate the improvement of each pathological condition individually. In general, an index of manic state is excessive hyperactivity induced by administering methamphetamine and chlordiazepoxide in combination, and that of depressive state is immobility induced by forced swimming.
Test 7: Evaluation of Antimanic Effect
Test 7 evaluates the antimanic effect of medicaments. The evaluation system is a test system whose utility has been already confirmed with a known antimanic agent which is clinically used as a mood-stabilizing drug, not as a drug for treating schizophrenia (Arban et al., Behay. Brain Res., 158:123-132, 2005, Foreman et al., Pharmacol. Biochem. Behay., 89: 523-534, 2008). Test compounds were orally administered to Slc: C57BL/6J male mice (8 mice in each group, body weight 20-26 g). After 30 minutes of administration, methamphetamine (4 mg/kg) and chlordiazepoxide (10 mg/kg) were administered intraperitoneally. Then, the mice were allowed to move freely in an acrylic cage (W 360 mm×D 230 mm×H 310 mm) for 90 minutes. The locomotor distances of the mice were measured with Ethovision software (Ver. 3.1). Among the 90 minutes, the result of the latter 60 minutes with the exception of the first 30 minute's result for adaptation to the new environment was used as data of the locomotor distance. The antimanic effect was evaluated by calculating how long locomotor distance was shortened against the control. To the control mice, 0.5% methylcellulose solution was administered.

Test [1] relates to 6 Hz psychomotor seizure model. The test can be described thus: 6 Hz psychomotor seizure model. It is filed as in vivo, mice. The following applies: mice. In a few lines: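 Anticonvulsant activity was tested in the 6 Hz psychomotor seizure model in mice, a model reflecting seizures resistant to current antiepileptic drugs. 30 minutes or an hour after dosing, corneal electrical stimulation (6 Hz, 32 mA, 3 seconds) was applied to provoke forelimb myoclonus, Straub tail and immobility. Control mice received 0.5% tragacanth solution, 0.5% methylcellulose solution or olive oil.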

Test [2] concerns maximum electroshock seizure (MES) model. The test can be described thus: Maximum electroshock seizure (MES) model test. The test is classed as in vivo, mice. A digest of the protocol: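 Tonic hind-limb extension was elicited by corneal electroshock (60 Hz, 25 mA, 0.2 s) 1 h after oral dosing. Test compounds were given at 50 or 100 mg/kg to groups of 3 male Slc: ddY mice (20-30 g), vehicle controls receiving 0.5% tragacanth or 0.5% methylcellulose solution.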

For test [3], the system named is subcutaneously pentetrazol-injected model (scPTZ). Put plainly: Subcutaneously pentetrazol-injected model (scPTZ) test. The following applies: pentetrazol 85 mg/kg s.c. after 1 hour. It is filed as in vivo, mice. A digest of the protocol: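 Pentetrazol (85 mg/kg, s.c.) was injected one hour after oral test compound at 50 or 100 mg/kg in groups of three male Slc:ddY mice weighing 20-30 g; vehicle controls got 0.5% tragacanth or 0.5% methylcellulose.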

The mark [4] stands for this setting: oral administration at a dose of 100 mg/kg.

For the compound `NC(=O)Cc1ccccc1-c1ccccc1F` [Example 1, 2-(2′-Fluorobiphenyl-2-yl)acetamide], the “Seizure threshold (uA) Δ % change” value in the test with amygdala-kindling model (100 mg/kg oral, 1 hour after administration, average percentage of change from pretreatment value) was 69.3%. Besides, the “Afterdischarge duration (sec) Δ % change” value with amygdala-kindling model (100 mg/kg oral, 1 hour after administration, change from pretreatment value, minus means shortened) is listed as −88%. Further, the Seizure severity score in the test on amygdala-kindling model (100 mg/kg oral, 1 hour after administration, stage scores 1-5) turned out to be 2.0. Besides, the “efficacy against the amygdala-kindling model” value in the test on amygdala-kindling model (setting [4]) is “potent efficacy”. Besides, the “The rate of the shortened locomotor-distance (% control)” value is 24.1 % control in the test with Slc: C57BL/6J male mice (30 mg/kg oral), 43.8 % control in the test with Slc: C57BL/6J male mice (60 mg/kg oral) and 73.8 % control with Slc: C57BL/6J male mice (100 mg/kg oral). The ED50 in test [1] (Mus musculus, 6 Hz psychomotor seizure model, oral, read-out: ED50) was found to be 56.2 mg/kg. Besides, the “efficacy in 6 Hz psychomotor seizure model” value in test [1] (setting [4]) was “potent efficacy”. Besides, in test [1] (oral, dose 100 mg/kg, 30 minutes or 1 hour after administration), the “6 Hz (Positive number/tested number)” value is 10/10/100. The responders at 50 mg/kg in test [2] (Mus musculus, po, 1 h, 50 mg/kg oral, Slc: ddY male mice, 3 per group, electrical stimulation 1 hour after administration, inhibition of hind limb extension, read-out: MES (positive number/tested number) (converted)) is 100%; in test [3] (Mus musculus, po, 1 h, 50 mg/kg oral, Slc: ddY male mice, 3 per group, observed 30 minutes for clonic convulsion, read-out: scPTZ (positive number/tested number) (converted)) it was 66.7%. For the same compound, the responders at 100 mg/kg in test [2] (Mus musculus, po, 1 h, 100 mg/kg oral, Slc: ddY male mice, 3 per group, electrical stimulation 1 hour after administration, inhibition of hind limb extension, read-out: MES (positive number/tested number) (converted)) is 100%; in test [3] (Mus musculus, po, 1 h, 100 mg/kg oral, Slc: ddY male mice, 3 per group, observed 30 minutes for clonic convulsion, read-out: scPTZ (positive number/tested number) (converted)), 66.7%. For the same compound, the “anticonvulsant action in maximum electroshock seizure (MES) model test” value in test [2] (mice, oral 50 or 100 mg/kg, 1 hour after administration) is reported as “anticonvulsant action was observed”. Also, the “anticonvulsant action in subcutaneously pentetrazol-injected model (scPTZ) test” value in test [3] (mice, oral 50 or 100 mg/kg) is on record as “anticonvulsant action was observed”.
